What is called logP is a log measure of how a compound divides between an organic and an aqueous phase. The low end stands for a more hydrophilic compound, the high end for a more lipophilic compound.

The results in this text go back to the OPERA property sets (Mansouri et al. 2018).

As for `CCCc1ccc(-c2cnc(SCCc3c[nH]cn3)[nH]2)cc1`, the logP was 4.09.
On to `c1ccc(-c2cnc(SCCc3c[nH]cn3)[nH]2)cc1`, for which the lipophilicity (logP) turned out to be 2.62.
In the case of `O=[N+]([O-])c1ccc(-c2cnc(SCCc3c[nH]cn3)[nH]2)cc1` it was 2.75; in that of `Clc1ccc(-c2cnc(SCCc3c[nH]cn3)[nH]2)cc1`, 3.66; in that of `O=[N+]([O-])c1cccc(-c2cnc(SCCc3c[nH]cn3)[nH]2)c1`, 2.43.
With `NC(=O)c1ccc(-c2cnc(SCCc3c[nH]cn3)[nH]2)cc1` the figure was 1.4.
Consider `CCCc1cccc(-c2cnc(SCCc3c[nH]cn3)[nH]2)c1`, for which the logP is 3.7.
In the case of `CCCCOc1ccc(-c2cnc(SCCc3c[nH]cn3)[nH]2)cc1` it was 4.11; in that of `Brc1cccc(-c2cnc(SCCc3c[nH]cn3)[nH]2)c1`, 3.76.
The compound `NC(=O)c1cccc(-c2cnc(SCCc3c[nH]cn3)[nH]2)c1` had a logP of 1.61.
The compound `O=S(=O)(Oc1ccc(-c2cnc(SCCc3c[nH]cn3)[nH]2)cc1)c1ccccc1` registered a logP of 3.72.
